Test results: patent publication US7098245B2, “Polynucleotide cleavage agent switched on by photo irradiation” (Tottori University, priority 2002, dated 2006)

Assays:
DNA = conditions: background, symposium report 2001; cited from earlier work
supercoiled φX174 DNA = test: DNA cleavage test using (R,R)- and (S,S)-11 (Xe lamp, 45 min); format: biochemical
Protocol: The reaction was carried out in a solvent of 20 mM sodium phosphate of pH 7.0 and 20% DMSO. Samples were irradiated for 45 min at a distance of 6 cm using Xe lamp using polystylene filter. Electrophoresis (0.8% agarose gel, TAE buffer, 100 V, 40 min). Gel was stained by EtBr and visualized by UV-B lamp (transillumnator).

supercoiled φX-174 DNA = test: DNA cleavage test under photo-irradiation (Xe lamp with polystylene filter, 2 hrs); format: biochemical
Protocol: (§1) DNA cleavage test using (S,S)—NH2-mono under photo-irradiation φX174 RFI DNA (New England BioLabs, N3021S, 150 ┌M) (1 ┌L) was dissolved in a 10 mM sodium phosphate buffer pH 7.0 (9 ┌L) in a micro tube.
(§2) Ethyl 9-anthracene carboxylate (anth-OEt) was used as a control compound. Three samples were prepared: a buffer solution of DNA, a mixture of anth-OEt with a buffer solution of DNA, and a mixture of (S,S)—NH2-mono with a buffer solution of DNA. These samples were placed under a UV-A lamp (max=365 nm, trans illuminator) at a distance of 4 cm, and irradiated for 3 h. The resulting mixture was subjected to an electrophoresis experiment ([…], TAE buffer, 100 V, 30 min). The resulting agarose gel was stained with ethidium bromide (EtBr), visualized by UV-B lamp and the DNA cleavage ratio was determined by NIH Image 1.62.
The test was carried out using (R,R)— and (S,S)—NH2-mono in the same manner as described in Example 2 except that the test samples were placed under a Xe lamp with a polystylene filter at a distance of 3 cm and irradiated for 2 hrs.

[1] = Stability of the compound (sunlight in solution; after deprotection); format: physicochemical
Protocol: Part G. A solution of ester 5 (14.6 mg, 0.0307 mmol) in methanol (0.3 mL) was stirred at rt in the presence of Pd/C (3.0 mg, 20 wt %) under H2 (1 atm) for 15 h in the dark. The crude products were filtered through a sintered glass filter with a Celite pad, and the filtrate was dried under vacuo to afford the title compound (S,S)—NH2-mono(9.2 mg, 0.027 mmol) in 88% yield. This compound was unstable when dissolved in methanol or CHCl3 under the irradiation of sunlight; therefore, it should be kept under an argon atmosphere in a dark place.
The reaction was carried out in a flask that was covered by aluminum foil to keep out light. A solution of (R,R)-10 (18 mg, 0.038 mmol) in methanol (1.0 mL) was stirred at rt in the presence of Pd/C (5.4 mg, 30 wt %) under H2 (1 atom) for 5 days and filtered though a glass sintered glass filter with a Celite pad. The filtrate was evaporated under reduced pressure to give (R,R)—NH2-mono (9.9 mg, […]). This compound was unstable when dissolved in methanol or CHCl3 under the irradiation of sunlight; therefore, it should be kept under an argon atmosphere in a dark place.

φX174 RFI DNA = test: DNA cleavage test under photo-irradiation (UV-A lamp 365 nm, 3 h), agarose gel electrophoresis; format: biochemical; conditions: 4 cm, 10 mM sodium phosphate pH 7.0, samples 1, 5, 12 mM, 1 ┌L
Protocol: as §1, §2
The increased ratio of nicked DNA means that DNA was cleaved by the experimental conditions.

[2] = Xe lamp, polystylene filter, 3 cm, 2 hrs

Row | stability after deprotection of the amino protecting group [1] | stability when dissolved in methanol or CHCl3 under irradiation of sunlight [1] | Structure (SMILES) | concentration required to convert supercoiled DNA to the nicked type DNA (supercoiled φX-174 DNA; [2]) [µM] | DNA cleavage activity (φX174 RFI DNA) | also measured
1 | – | – | O=C(OCC1C(COC(=O)c2c3ccccc3cc3ccccc23)C1(F)F)c1c2ccccc2cc2ccccc12 (stereo not drawn) [9-anthracene carboxylic diester of 1,3-bishydroxymethyl-2,2-difluoro-cyclopropane] | – | – | DNA cleavage activity (DNA): no significant DNA cleavage activity
2 | – | – | O=C(NC[C@H]1[C@H](CO)C1(F)F)c1c2ccccc2cc2ccccc12 [(R,R)-11, (R,R)-2,2-difluoro-3-hydroxymethyl-cyclopropylmethyl anthracene-9-carboxamide] | – | – | equivalent versus the DNA base pair at that concentration (supercoiled φX174 DNA; 20 mM sodium phosphate pH 7.0, 20% DMSO): 1.3 equivalent; concentration at which supercoiled DNA was converted to the nicked form (supercoiled φX174 DNA; 20 mM sodium phosphate pH 7.0, 20% DMSO, 6 cm): 100 µM; DNA cleavage activity (qualitative) (supercoiled φX174 DNA; FIG. 5): strong DNA cleavage activity
3 | unstable | unstable | NC[C@H]1[C@H](COC(=O)c2c3ccccc3cc3ccccc23)C1(F)F [(R,R)—NH2-mono, (R,R)-3-aminomethyl-2,2-difluoro-cyclopropylmethyl anthracene-9-carboxylate] | 85.5 | – | DNA cleavage strength relative to the (S,S)-isomer (supercoiled φX-174 DNA; Xe lamp, 2 hrs): more than 10 times; equivalent versus supercoiled φX-174 DNA at the required concentration (supercoiled φX-174 DNA; [2]): 0.667 equivalent; activity relative to the corresponding (S,S)-isomer (description) (supercoiled φX-174 DNA; stated in detailed description): five times stronger activity
4 | unstable | unstable | NC[C@@H]1[C@@H](COC(=O)c2c3ccccc3cc3ccccc23)C1(F)F [(S,S)—NH2-mono, (S,S)-3-aminomethyl-2,2-difluoro-cyclopropylmethyl anthracene-9-carboxylate] | 1200 | weak DNA cleavage agent | –
5 | – | – | CCOC(=O)c1c2ccccc2cc2ccccc12 [anth-OEt, Ethyl 9-anthracene carboxylate, reference compound] | – | no significant activity | –
